Tested on: urease enzyme
Assay: Draeger tube NH3 volatilization screening of urease inhibitor compositions applied on urea prills on soil
Set-up: NH3 Draeger tube reading: unit not given here
Conditions: for urease enzyme inhibitory properties: exposed to soil alone or in combination with urea-containing fertilizer
Procedure: tBHQ (main active ingredient (AI)), solvents, additives (co-Actives) were obtained from commercial vendors. Draeger tube protocol was developed and used soils from NCSU Ag research facility at Oxford, North Carolina. Samples were prepared by co-dissolution in the appropriate solvent by rolling on a sample roller for 2-4 hours at ambient temperature and allowed to stand over weekend to make sure there was no haziness and/or precipitate that developed. Typical sample size was 4-4.5 g in a 12 mL cylindrical glass vial.
The following candidates were tBHQ+[x co-Active+y Solvent] where x and y varied.

NC(N)=O [Urea]
NH3 Draeger tube reading (Round 10 (Table 11), 18 hrs): 0
NH3 Draeger tube reading (Round 10 (Table 11), 24 hrs): 0
NH3 Draeger tube reading (Round 10 (Table 11), 42 hrs): 125
NH3 Draeger tube reading (Round 10 (Table 11), 48 hrs): 150
NH3 Draeger tube reading (Round 10 (Table 11), 66 hrs): 150
NH3 Draeger tube reading (Round 10 (Table 11), 90 hrs): 150
NH3 Draeger tube reading (Round 10 (Table 11), 120 hrs): 150
NH3 Draeger tube reading (Round 10 (Table 11), 187 hrs): 150
NH3 Draeger tube reading (Round 10 (Table 11), 210 hrs): 150
NH3 Draeger tube reading (Round 10 (Table 11), 266 hrs): 150
NH3 Draeger tube reading (Round 10 (Table 11), 288 hrs): 150
NH3 Draeger tube reading (Round 10 (Table 11), 330 hrs): 150
NH3 Draeger tube reading (Round 10 (Table 11), 354 hrs): 150
NH3 Draeger tube reading (Round 10 (Table 11), 381 hrs): 150
NH3 Draeger tube reading (Round 10 (Table 11), […]): 150
NH3 Draeger tube reading (Round 11 (Table 12), 16 hrs): 0
NH3 Draeger tube reading (Round 11 (Table 12), 24 hrs): 0
NH3 Draeger tube reading (Round 11 (Table 12), 40 hrs): 12
NH3 Draeger tube reading (Round 11 (Table 12), 48 hrs): 36
NH3 Draeger tube reading (Round 11 (Table 12), 64 hrs): 125.4
NH3 Draeger tube reading (Round 11 (Table 12), 88 hrs): 150
NH3 Draeger tube reading (Round 11 (Table 12), 160 hrs): 150
NH3 Draeger tube reading (Round 11 (Table 12), 184 hrs): 150
NH3 Draeger tube reading (Round 11 (Table 12), 232 hrs): 150
NH3 Draeger tube reading (Round 11 (Table 12), 256 hrs): 150
NH3 Draeger tube reading (Round 11 (Table 12), […]): 150
NH3 Draeger tube reading (Round 12 (Table 13), 15 hrs): 0
NH3 Draeger tube reading (Round 12 (Table 13), 23 hrs): 0
NH3 Draeger tube reading (Round 12 (Table 13), 39 hrs): 31
NH3 Draeger tube reading (Round 12 (Table 13), 48 hrs): 118
NH3 Draeger tube reading (Round 12 (Table 13), 66 hrs): 150
NH3 Draeger tube reading (Round 12 (Table 13), 90 hrs): 150
NH3 Draeger tube reading (Round 12 (Table 13), 111 hrs): 150
NH3 Draeger tube reading (Round 12 (Table 13), 159 hrs): 150
NH3 Draeger tube reading (Round 12 (Table 13), 192 hrs): 150
NH3 Draeger tube reading (Round 12 (Table 13), 216 hrs): 150
NH3 Draeger tube reading (Round 12 (Table 13), 239 hrs): 150
NH3 Draeger tube reading (Round 12 (Table 13), 260 hrs): 150
NH3 Draeger tube reading (Round 12 (Table 13), 283 hrs): 150
NH3 Draeger tube reading (Round 12 (Table 13), 304 hrs): 150
NH3 Draeger tube reading (Round 12 (Table 13), 327 hrs): 150
NH3 Draeger tube reading (Round 12 (Table 13), 357 hrs): 150
NH3 Draeger tube reading (Round 12 (Table 13), 375 hrs): 150
NH3 Draeger tube reading (Round 12 (Table 13), […]): 150

Oc1ccc(O)cc1 [hydroquinone, reference compound]
urease enzyme inhibitory properties: significantly less efficacious urease enzyme inhibition properties

CC(C)(C)c1cc(O)ccc1O [tert-butylhydroquinone]
urease enzyme inhibitory properties: strong urease enzyme inhibitory properties
